Laboratory results taken from patent US20220242870A1, “HETEROCYCLE-FUSED PYRIMIDINE DERIVATIVE AND USE THEREOF” (VORONOI Inc., priority 2019, published 2022).

Legend:
MV4-11 cells = assay: AML cell proliferation inhibitory activity (CellTiter-Glo); type: cell-based; details: Homo sapiens, 72 hours
Method: The inhibitory activities of the example compounds according to the present invention on the proliferation of acute myeloid leukemia (AML) cells expressing the FLT3 mutant gene were evaluated. Specifically, RS4;11 and MV4-11 cells as acute myeloid leukemia cells expressing the FLT3 mutant gene were cultured in RPMI-1640 (Invitrogen) adding 10% FBS. The cells were seeded into each well of a clear bottom white 96-well plate (Corning) at 3000 to 5000 cells 24 hours before compound treatment. The compound was diluted in DMSO (diluted each three-fold, to a total of 12 concentrations) and injected at 0.5 μL each so as to be a final concentration of 0.3 nM to 50 μM. After 72 hours of the compound treatment, they were treated with CellTiter-Glo Luminescent Cell Viability assay (Promega) and stored at room temperature for 10 minutes, and luminescence intensities were measured with a reader (SynergyNeo, Biotek) to count viable cells. Each experiment was performed three times repeatedly. The result values were calculated as the cell growth rate (%) compared to the control treated with the solvent. The graph was derived using the GraphPad Prism program (version 5.0), the GI50 (nM) values were calculated, and the results were shown in Table 3 below.

MCF-7 cells = assay: Breast cancer cell line proliferation inhibitory activity (CellTiter-Glo 2.0); type: cell-based; details: Homo sapiens, MCF7, 120 hours
Method: In order to evaluate the breast cancer cell line cell proliferation inhibitory activities of Examples according to the present invention, the following experiment was performed. Breast cancer cells of MCF-7 (Korean Cell Line Bank) were planted in a clear bottom white 96-well plate (Corning) so as to be 3×10^3/150 μl/well, and a culture solution comprising the compound continuously diluted in multiples of 3 at 12 concentrations (0.00001-2 mM) and a DMSO control group was added by 0.5 μl/well and treated so that the final concentration was 0.00005-10 μM, and then cultured in a 37° C. CO2 incubator for 120 hours. After 120 hours, the plate treated with the compound is taken out, and CellTiter-Glo® 2.0 Assay (Promega) solution is treated at 150 μl/well and then they mix well. They mix well at room temperature for 10 minutes or so, and the fluorescence is measured with a microplate reader. The data were expressed as a percentage in proportion to the vehicle standard treated cells, the GI50 (nM) values were calculated using GraphPad Prism 8.3.0 (GraphPad software Inc., San Diego), and the results were shown in Table 3 below.

human FLT3-ITD enzyme = biological target: T1, human FLT3-ITD enzyme (Homo sapiens, UniProt P36888); assay: FLT3 enzyme inhibitory ability (ADP-Glo kinase assay); type: biochemical; details: human FLT3-ITD enzyme 10 ng, ATP 10 μM, 25° C. 1 hour
T1 sequence (P36888 1-993): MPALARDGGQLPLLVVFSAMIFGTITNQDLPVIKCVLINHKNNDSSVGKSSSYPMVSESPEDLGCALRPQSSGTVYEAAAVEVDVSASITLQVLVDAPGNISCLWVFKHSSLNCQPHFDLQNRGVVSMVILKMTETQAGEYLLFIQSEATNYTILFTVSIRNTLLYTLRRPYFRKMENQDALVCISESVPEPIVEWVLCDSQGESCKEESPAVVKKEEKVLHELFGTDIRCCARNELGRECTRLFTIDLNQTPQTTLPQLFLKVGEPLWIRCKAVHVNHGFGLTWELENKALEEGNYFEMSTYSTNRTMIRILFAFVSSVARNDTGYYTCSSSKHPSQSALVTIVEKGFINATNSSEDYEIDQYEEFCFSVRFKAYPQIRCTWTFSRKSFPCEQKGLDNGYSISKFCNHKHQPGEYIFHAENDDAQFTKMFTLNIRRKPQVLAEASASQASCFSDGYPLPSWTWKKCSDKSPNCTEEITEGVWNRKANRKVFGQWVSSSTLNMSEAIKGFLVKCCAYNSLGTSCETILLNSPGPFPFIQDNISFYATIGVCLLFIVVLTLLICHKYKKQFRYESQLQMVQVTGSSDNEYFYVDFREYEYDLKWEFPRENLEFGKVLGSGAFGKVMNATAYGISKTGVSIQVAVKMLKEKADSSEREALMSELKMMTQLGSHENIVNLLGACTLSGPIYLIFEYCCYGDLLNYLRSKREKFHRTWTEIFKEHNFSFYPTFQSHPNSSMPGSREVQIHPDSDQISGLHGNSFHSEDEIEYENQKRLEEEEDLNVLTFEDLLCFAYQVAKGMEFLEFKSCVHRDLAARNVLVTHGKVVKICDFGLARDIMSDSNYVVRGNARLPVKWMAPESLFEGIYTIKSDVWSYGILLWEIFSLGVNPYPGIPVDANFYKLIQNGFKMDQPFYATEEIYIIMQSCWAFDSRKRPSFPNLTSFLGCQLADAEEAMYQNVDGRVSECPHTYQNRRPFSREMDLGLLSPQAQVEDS
In short: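 Purified human FLT3-ITD (10 ng) with 10 μM ATP and specific substrate in 40 mM Tris-HCl pH 7.4, 20 mM MgCl2, 0.5 mg/mL BSA, 50 μM DTT, 1 h at 25 °C. ADP formation read by ADP-Glo luminescence; IC50 (nM) versus solvent-treated control.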

human GST-HPK1 (1-346) = biological target: T2, human GST-HPK1 (1-346) (Homo sapiens, UniProt Q92918); assay: HPK1 enzyme inhibitory ability (ADP-Glo kinase assay); type: biochemical; details: human GST-HPK1 3 ng, ATP 3 uM, 25° C. 2 hours
T2 construct: purified human GST-HPK1 (1-346, Signalchem) enzyme; purchased Signalchem
T2 sequence (Q92918 1-346): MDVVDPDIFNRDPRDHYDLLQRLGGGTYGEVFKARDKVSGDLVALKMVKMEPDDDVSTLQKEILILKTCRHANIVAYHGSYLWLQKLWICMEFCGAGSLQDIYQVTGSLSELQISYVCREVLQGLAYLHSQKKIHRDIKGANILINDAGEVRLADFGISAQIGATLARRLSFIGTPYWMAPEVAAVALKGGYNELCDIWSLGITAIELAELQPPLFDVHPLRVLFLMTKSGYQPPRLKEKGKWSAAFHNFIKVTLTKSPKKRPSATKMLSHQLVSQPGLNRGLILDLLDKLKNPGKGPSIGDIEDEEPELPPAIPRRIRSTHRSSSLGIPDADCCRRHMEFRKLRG
In short: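 Human GST-HPK1(1-346), 3 ng, reacted with 3 uM ATP and specific substrate in 40 mM Tris-HCl pH 7.4, 20 mM MgCl2, 0.5 mg/mL BSA, 50 uM DTT for 2 h at 25° C. ADP-Glo luminescence read; IC50 (nM) relative to untreated solvent control.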

Row | SMILES | GI50 (MV4-11 cells) | GI50 (MCF-7 cells) | IC50 (human FLT3-ITD enzyme) | IC50 (human GST-HPK1 (1-346))
1 | CN1CCN(c2ccc(Nc3nc(N4N=CCC4c4ccccc4)c4sccc4n3)cc2)CC1 (stereo not drawn) [Example 1, N-(4-(4-methylpiperazin-1-yl)phenyl)-4-(5-phenyl-4,5-dihydro-1H-pyrazol-1-yl)thieno[3,2-d]pyrimidin-2-amine] | > 500 nM | > 500 nM | 250 to 500 nM | > 500 nM
2 | C1=NN(c2nc(Nc3ccc(N4CCOCC4)cc3)nc3ccsc23)C(c2ccccc2)C1 (stereo not drawn) [Example 3, N-(4-morpholinophenyl)-4-(5-phenyl-4,5-dihydro-1H-pyrazol-1-yl)thieno[3,2-d]pyrimidin-2-amine] | > 500 nM |  |  | 
3 | CN1CCN(c2ccc(Nc3nc(N4N=CCC4c4ccccc4)c4sccc4n3)nc2)CC1 (stereo not drawn) [Example 4, N-(5-(4-methylpiperazin-1-yl)pyridin-2-yl)-4-(5-phenyl-4,5-dihydro-1H-pyrazol-1-yl)thieno[3,2-d]pyrimidin-2-amine] | > 500 nM |  | > 500 nM | 
4 | COc1cc(N2CCN(C)CC2)ccc1Nc1nc(N2N=CCC2c2ccccc2)c2sccc2n1 (stereo not drawn) [Example 6, N-(2-methoxy-4-(4-methylpiperazin-1-yl)phenyl)-4-(5-phenyl-4,5-dihydro-1H-pyrazol-1-yl)thieno[3,2-d]pyrimidin-2-amine] | > 500 nM | > 500 nM | > 500 nM | > 500 nM
5 | COc1cc(Nc2nc(N3N=CCC3c3ccccc3)c3sccc3n2)ccc1N1CCC(N2CCN(C)CC2)CC1 (stereo not drawn) [Example 8, N-(3-methoxy-4-(4-(4-methylpiperazin-1-yl)piperidin-1-yl)phenyl)-4-(5-phenyl-4,5-dihydro-1H-pyrazol-1-yl)thieno[3,2-d]pyrimidin-2-amine] | ≥ 250 nM | > 500 nM | > 500 nM | > 500 nM
6 | COc1cc(N2CCC(N3CCN(C)CC3)CC2)ccc1Nc1nc(N2N=CCC2c2ccccc2)c2sccc2n1 (stereo not drawn) [Example 10, N-(2-methoxy-4-(4-(4-methylpiperazin-1-yl)piperidin-1-yl)phenyl)-4-(5-phenyl-4,5-dihydro-1H-pyrazol-1-yl)thieno[3,2-d]pyrimidin-2-amine] | > 500 nM |  | ≥ 250 nM | 
7 | Cc1cc(N2CCOCC2)ccc1Nc1nc(N2N=CCC2c2ccccc2)c2sccc2n1 (stereo not drawn) [Example 21, N-(2-methyl-4-morpholinophenyl)-4-(5-phenyl-4,5-dihydro-1H-pyrazol-1-yl)thieno[3,2-d]pyrimidin-2-amine] | > 500 nM |  |  | 
8 | O=C(c1ccc(Nc2nc(N3N=CCC3c3ccccc3)c3sccc3n2)cc1)N1CCOCC1 (stereo not drawn) [Example 22, morpholino(4-((4-(5-phenyl-4,5-dihydro-1H-pyrazol-1-yl)thieno[3,2-d]pyrimidin-2-yl)amino)phenyl)methanone] | > 500 nM |  |  | 
9 | Cc1cn(Cc2ccc(Nc3nc(N4N=CCC4c4ccccc4)c4sccc4n3)cc2)cn1 (stereo not drawn) [Example 23, N-(4-((4-methyl-1H-imidazol-1-yl)methyl)phenyl)-4-(5-phenyl-4,5-dihydro-1H-pyrazol-1-yl)thieno[3,2-d]pyrimidin-2-amine] | > 500 nM |  |  | 
10 | Cc1cn(Cc2cccc(Nc3nc(N4N=CCC4c4ccccc4)c4sccc4n3)c2)cn1 (stereo not drawn) [Example 24, N-(3-((4-methyl-1H-imidazol-1-yl)methyl)phenyl)-4-(5-phenyl-4,5-dihydro-1H-pyrazol-1-yl)thieno[3,2-d]pyrimidin-2-amine] | > 500 nM |  |  | 
11 | CN(C)CCn1cc(Nc2nc(N3N=CCC3c3ccccc3)c3sccc3n2)cn1 (stereo not drawn) [Example 27, N-(1-(2-(dimethylamino)ethyl)-1H-pyrazol-4-yl)-4-(5-phenyl-4,5-dihydro-1H-pyrazol-1-yl)thieno[3,2-d]pyrimidin-2-amine] | > 500 nM |  |  | 
12 | COc1cc(Nc2nc(N3N=CCC3c3ccccc3)c3sccc3n2)ccc1C(=O)NC1CCN(C)CC1 (stereo not drawn) [Example 52, 2-methoxy-N-(1-methylpiperidin-4-yl)-4-((4-(5-phenyl-4,5-dihydro-1H-pyrazol-1-yl)thieno[3,2-d]pyrimidin-2-yl)amino)benzamide] | ≥ 250 nM |  | > 500 nM | 
13 | COc1cc(N2CCC(N3CCN(C)CC3)CC2)ccc1Nc1nc(N2OCC[C@H]2c2ccccc2)c2c(C#N)c[nH]c2n1 [Example 121, (S)-2-((2-methoxy-4-(4-(4-methylpiperazin-1-yl)piperidin-1-yl)phenyl)amino)-4-(3-phenylisoxazolidin-2-yl)-7H-pyrrolo[2,3-d]pyrimidine-5-carbonitrile] |  | ≥ 250 nM | > 500 nM | > 500 nM
14 | CN(C)[C@@H]1CCN(c2cccc(Nc3nc(N4OCC[C@@H]4c4ccccc4)c4cc[nH]c4n3)c2)C1 [Example 125, N-(3-((R)-3-(dimethylamino)pyrrolidin-1-yl)phenyl)-4-((R)-3-phenylisoxazolidin-2-yl)-7H-pyrrolo[2,3-d]pyrimidin-2-amine] |  | > 500 nM | > 500 nM | > 500 nM
15 | CN(C)[C@H]1CCN(c2cccc(Nc3nc(N4OCC[C@@H]4c4ccccc4)c4cc[nH]c4n3)c2)C1 [Example 126, N-(3-((S)-3-(dimethylamino)pyrrolidin-1-yl)phenyl)-4-((R)-3-phenylisoxazolidin-2-yl)-7H-pyrrolo[2,3-d]pyrimidin-2-amine] |  | > 500 nM | > 500 nM | > 500 nM
16 | CN1CCN(c2ccc(Nc3nc(N4OCC[C@@H]4c4ccccc4)c4cc[nH]c4n3)cc2)CC1 [Example 128, (R)-N-(4-(4-methylpiperazin-1-yl)phenyl)-4-(3-phenylisoxazolidin-2-yl)-7H-pyrrolo[2,3-d]pyrimidin-2-amine] | 250 to 500 nM |  |  | 
17 | COc1cc(Nc2nc(N3OCC[C@@H]3c3ccccc3)c3cc[nH]c3n2)ccc1N1CCC(N2CCN(C)CC2)CC1 [Example 129, (R)-N-(3-methoxy-4-(4-(4-methylpiperazin-1-yl)piperidin-1-yl)phenyl)-4-(3-phenylisoxazolidin-2-yl)-7H-pyrrolo[2,3-d]pyrimidin-2-amine] | 250 to 500 nM |  | > 500 nM | 
